Tests used:
[1] = target: T1, hMTH1 (human MutT homolog 1) (Homo sapiens, UniProt P36639); design: gene NUDT1; details: substrate dGTP 100 μM, 6 nM hMTH1, 10 mM Mg acetate, 1% DMSO, 22 °C, active site (crystal structure, metal free) buffer, no inhibition seen, bound not given
[2] = target: T1, hMTH1 (human MutT homolog 1); test: modified Malachite Green assay with inorganic pyrophosphatase; format: biochemical; design: gene NUDT1; E. coli-optimised cDNA in pET28a(+), expressed in E. coli BL21(DE3); His-tag removed with thrombin; monomer

Row | SMILES | no inhibition [1] | IC50 [2] [nM]
1 | C[C@]12CCC(=O)C[C@@H]1CC[C@@H]1[C@@H]2CC[C@]2(C)[C@@H](O)CC[C@@H]12 [Dihydrotestosterone] | while DHT did not show any inhibition of hMTH1 (Fig. S1) | 
2 | C[C@]12Cc3c[nH]nc3C[C@@H]1CC[C@@H]1[C@@H]2CC[C@@]2(C)[C@H]1CC[C@]2(C)O [stanozolol] |  | 26
